Where two headings read alike, the source gives them in different places.
Columns and labels:
[1] = Cytotoxicity assay (intracellular ATP levels) in Huh5-2 replicon cells; assay type: cell-based; conditions: human, Huh5-2 cells, read-out: HCV Replicon 1b CC50
Experimental: (§1) All synthesized compounds were tested against HCV genotype 1b Con-1 subgenomic replicon in the Huh-5-2 stable cell line. Specifically, their activity against viral replication was estimated by measuring firefly luciferase, which is co-expressed by the bicistronic replicon, and their half-maximal effective concentrations (EC50) were determined. In parallel, the half-maximal cytotoxic concentrations (CC50) of the compounds were estimated, and their selective indexes (SI50: CC50/ EC50) were calculated. All novel synthesized compounds were active against HCV 1b with EC50 < 1 µM except for compound 4b (Table 3).
Intracellular ATP levels were measured to determine the cytotoxicity of the compounds in the treated cells. In 96-well plates, 10^4 cells per well were seeded, incubated with serial dilutions of the compounds or DMSO as a control for 72 h at 37 °C (5% CO2) and lysed for ATP measurement. ATP levels were measured using the ViaLight HS BioAssay kit (Lonza, Basel, Switzerland) in a GloMax 20/20 single-tube luminometer (Promega) for 1 s, according to the manufacturer’s protocol. Values were normalized to total protein amounts and used to determine the compound concentration causing 50% cell death (CC50). Nonlinear regression analysis was performed using Prism 5.0 software (GraphPad Software Inc., San Diego, CA, USA).

[2] = system: HCV genotype 1b Con-1 subgenomic replicon; assay: Anti-HCV luciferase assay, genotype 1b (Con1) subgenomic replicon in Huh5-2 cells; assay type: cell-based, Hepatitis C virus; conditions: for HCV Replicon 1b SI50: CC50/EC50, Huh5-2 cells
Experimental: as §1
Huh5-2 [65] and Huh7-JFH1 [66] stable cell lines harbor the subgenomic HCV reporter replicon I389luc-ubi-neo/NS3-3′/Con1/5.1 (genotype 1b; strain Con1) and I389luc-ubi-neo/NS3-3′_dg_JFH1 (genotype 2a, JFH1 strain), respectively (kindly provided by R. Bartenschlager, Heidelberg University, Heidelberg, Germany). Huh7.5-3a and Huh7.5-4a stable cell lines harbor the subgenomic HCV reporter replicon S52-SG (Feo) (AII) (genotype 3a; S52 strain) and ED43-SG (Feo) (VYG) (genotype 4a; ED43 strain), respectively (viral constructs kindly provided by C.M. Rice, Rockefeller University, New York, NY, USA). These replicons carry as a first cistron firefly luciferase (F-Luc) and neomycin phosphotransferase genes under the translational control of the HCV internal ribosome entry site (IRES), followed by HCV NS3 to NS5B proteins under the control of the EMCV IRES.
The anti-HCV assay in replicon cells was performed by seeding 1 × 10^4 cells per well in a 96-well plate. After 24 h of incubation at 37 °C (5% CO2) and medium removal, serial dilutions of the test compounds in complete DMEM were added. Cells were lysed after 72 h, and F-Luc activity was measured. The anti-HCV assay for the full-length viral construct H77S.3/GLuc2A was performed after electroporation of Huh7-Lunet cells with viral RNA. Cells were seeded in 96-well plates, the medium was removed 24 h after electroporation, and serial dilutions of the compounds in complete DMEM were added. At 72 h post-treatment, cell supernatants were collected, and G-Luc activity was measured. In addition, the cells were lysed for total protein quantification.
Relative luminescence units (RLU) were expressed as a percentage of the respective units derived from DMSO-treated cells (control). The half-maximal effective concentration (EC50), defined as the concentration of compound that reduces luciferase signal by 50%, was calculated by dose-response curve analysis using Prism 5.0 software (GraphPad Software Inc., San Diego, CA, USA).
The F-Luc activity was measured using the Luciferase Assay System (Promega, Madison, WI, USA), as recommended by the manufacturer. The G-Luc activity was measured using 12 μM coelenterazine (Promega) in assay buffer (50 mM potassium phosphate, pH 7.4, 500 mM NaCl, 1 mM EDTA). Measurements were carried out using a GloMax 20/20 single tube luminometer (Promega) for 10 s. The F-Luc activity was normalized to the total protein amount determined using the Bradford assay reagent (Pierce, Waltham, MA, USA).

[3] = Hepatitis C virus, Huh-5-2, 72 h, Huh5-2 cells, Con1 strain, F-Luc, 72 h, mean of three experiments, read-out: HCV Replicon 1b EC50
[4] = Huh5-2 cells, Con1 strain, F-Luc, 72 h, mean of three experiments, read-out: HCV Replicon 1b EC50
[5] = Hepatitis C virus, Huh-5-2, 72 h, read-out: HCV Replicon 1b EC50, Huh5-2 cells, Con1 strain, F-Luc, 72 h, mean of three experiments

| SMILES | melting point | CC50 at 72 h [1] | HCV Replicon 1b SI50 [2] | EC50 [2, 3] | EC50 [2, 4] | EC50 [2, 5] | EC50 ([2]; Hepatitis C virus, Huh-5-2, Table S1, in vitro result versus genotype 1b, read-out: NS5A EC50) |
| --- | --- | --- | --- | --- | --- | --- | --- |
| COC(=O)N[C@@H](C(=O)N1CCC[C@H]1c1ncc(-c2ccc(C#CC#Cc3ccc(-c4cnc([C@@H]5CCCN5C(=O)[C@H](NC(=O)OC)c5ccccc5)[nH]4)cc3)cc2)[nH]1)c1ccccc1 [Compound 10b, Dimethyl ((1R,1′R)-((2S,2′S)-((buta-1,3-diyne-1,4-diylbis(4,1-phenylene))bis(1H-imidazole-5,2-diyl))bis(pyrrolidine-2,1-diyl))bis(2-oxo-1-phenylethane-2,1-diyl))dicarbamate] | 125 to 127 °C | > 100 µM | >1180.77 | 84.7 nM | – | – | – |
| COC(=O)N[C@@H](CC(C)C)C(=O)N1CCC[C@H]1c1ncc(-c2ccc(C#CC#Cc3ccc(-c4cnc([C@@H]5CCCN5C(=O)[C@H](CC(C)C)NC(=O)OC)[nH]4)cc3)cc2)[nH]1 [Compound 5b, Dimethyl ((2S,2′S)-((2S,2′S)-((buta-1,3-diyne-1,4-diylbis(4,1-phenylene))bis(1H-imidazole-5,2-diyl))bis(pyrrolidine-2,1-diyl))bis(4-methyl-1-oxopentane-1,2-diyl))dicarbamate] | 124 to 126 °C | > 100 µM | >6203.47 | 16.1 nM | 16.1 nM | – | – |
| COC(=O)N[C@H](CC(C)C)C(=O)N1CCC[C@H]1c1ncc(-c2ccc(C#CC#Cc3ccc(-c4cnc([C@@H]5CCCN5C(=O)[C@@H](CC(C)C)NC(=O)OC)[nH]4)cc3)cc2)[nH]1 [Compound 6b, Dimethyl ((2R,2′R)-((2S,2′S)-((buta-1,3-diyne-1,4-diylbis(4,1-phenylene))bis(1H-imidazole-5,2-diyl))bis(pyrrolidine-2,1-diyl))bis(4-methyl-1-oxopentane-1,2-diyl))dicarbamate] | 129 to 131 °C | > 100 µM | >1512.63 | – | – | 42.1 nM | 66.1 nM |
| CCCCOC(=O)N[C@H](C(=O)N1CCC[C@H]1c1ncc(-c2ccc(C#CC#Cc3ccc(-c4cnc([C@@H]5CCCN5C(=O)[C@@H](NC(=O)OCCCC)C(C)C)[nH]4)cc3)cc2)[nH]1)C(C)C [Compound 4b, Dibutyl ((2S,2′S)-((2S,2′S)-((buta-1,3-diyne-1,4-diylbis(4,1-phenylene))bis(1H-imidazole-5,2-diyl))bis(pyrrolidine-2,1-diyl))bis(3-methyl-1-oxobutane-1,2-diyl))dicarbamate] | 136 to 138 °C | > 100 µM | – | > 1000 nM | – | – | – |
| CCOC(=O)N[C@H](C(=O)N1CCC[C@H]1c1ncc(-c2cccc(C#CC#Cc3cccc(-c4cnc([C@@H]5CCCN5C(=O)[C@@H](NC(=O)OCC)C(C)C)[nH]4)c3)c2)[nH]1)C(C)C [Compound 3a, Diethyl ((2S,2′S)-((2S,2′S)-((buta-1,3-diyne-1,4-diylbis(3,1-phenylene))bis(1H-imidazole-5,2-diyl))bis(pyrrolidine-2,1-diyl))bis(3-methyl-1-oxobutane-1,2-diyl))dicarbamate] | 124 to 126.7 °C | > 100 µM | >629.72 | 159 nM | – | – | – |
| COC(=O)N[C@@H](C(=O)N1CCC[C@H]1c1ncc(-c2cccc(C#CC#Cc3cccc(-c4cnc([C@@H]5CCCN5C(=O)[C@H](NC(=O)OC)C(C)C)[nH]4)c3)c2)[nH]1)C(C)C [Compound 2a, Dimethyl ((2R,2′R)-((2S,2′S)-((buta-1,3-diyne-1,4-diylbis(3,1-phenylene))bis(1H-imidazole-5,2-diyl))bis(pyrrolidine-2,1-diyl))bis(3-methyl-1-oxobutane-1,2-diyl))dicarbamate] | 103 to 105 °C | > 100 µM | >250.06 | 400 nM | – | – | – |
| CCOC(=O)N[C@H](CC(C)C)C(=O)N1CCC[C@H]1c1ncc(-c2cccc(C#CC#Cc3cccc(-c4cnc([C@@H]5CCCN5C(=O)[C@@H](CC(C)C)NC(=O)OCC)[nH]4)c3)c2)[nH]1 [Compound 8a, Diethyl ((2R,2′R)-((2S,2′S)-((buta-1,3-diyne-1,4-diylbis(3,1-phenylene))bis(1H-imidazole-5,2-diyl))bis(pyrrolidine-2,1-diyl))bis(4-methyl-1-oxopentane-1,2-diyl))dicarbamate] | 109 to 111 °C | > 100 µM | >1170.82 | – | 85.4 nM | 85.4 nM | – |
| COC(=O)N[C@@H](CC(C)C)C(=O)N1CCC[C@H]1c1ncc(-c2cccc(C#CC#Cc3cccc(-c4cnc([C@@H]5CCCN5C(=O)[C@H](CC(C)C)NC(=O)OC)[nH]4)c3)c2)[nH]1 [Compound 5a, Dimethyl ((2S,2′S)-((2S,2′S)-((buta-1,3-diyne-1,4-diylbis(3,1-phenylene))bis(1H-imidazole-5,2-diyl))bis(pyrrolidine-2,1-diyl))bis(4-methyl-1-oxopentane-1,2-diyl))dicarbamate] | 103.1 to 105.3 °C | > 100 µM | >879.51 | 114 nM | – | – | – |

Source: PMC9146377, “Design and Synthesis of Novel Bis-Imidazolyl Phenyl Butadiyne Derivatives as HCV NS5A Inhibitors” (Pharmaceuticals, 2022)
